# Measurements published in the supplement of paper PMC10878532, “Sperm Toolbox—A selection of small molecules to study human spermatozoa” (PLOS ONE, 2024).
# Experiments:
# human spermatozoa [1] = test: progressively motile sperm, percent change vs DMSO (capacitating); higher = more of the measured sperm population than DMSO, for viability, fewer PI-positive (dead) cells than DMSO; conditions: incubation time: 30min incubation
# HepG2 = HepG2 toxicity (resazurin), effect normalised to DMSO (DMSO = 0); higher = more features changed / larger toxic effect; conditions: incubation time: 70h incubation
# HeLa [2] = test: Cell Painting percent induction (share of features beyond 2 z-scores vs DMSO); higher = more features changed / larger toxic effect; extreme values may be limits of the assay; conditions: incubation time: 24h incubation
# human spermatozoa [3] = test: hyperactivated motile sperm, percent change vs DMSO (capacitating); higher = more of the measured sperm population than DMSO, for viability, fewer PI-positive (dead) cells than DMSO; conditions: incubation time: 30min incubation
# HeLa [4] = test: HeLa toxicity: nuclei-count effect normalised to DMSO (DMSO = 0); higher = more features changed / larger toxic effect; conditions: incubation time: 24h incubation
# human spermatozoa [5] = test: change in acrosome-reacted (PNA+) sperm vs DMSO, no agonist (capacitating); higher = more of the measured sperm population than DMSO, for viability, fewer PI-positive (dead) cells than DMSO; conditions: incubation time: 3h
# human spermatozoa [6] = test: acrosome-reacted (PNA+) sperm after agonist cocktail, percent change vs DMSO (capacitating); higher = more of the measured sperm population than DMSO, for viability, fewer PI-positive (dead) cells than DMSO; conditions: incubation time: 3h, capacitating + agonist cocktail 1h
# human spermatozoa [7] = test: total motile sperm, percent change vs DMSO (non-capacitating); higher = more of the measured sperm population than DMSO, for viability, fewer PI-positive (dead) cells than DMSO
# human spermatozoa [8] = test: progressively motile sperm, percent change vs DMSO (non-capacitating); higher = more of the measured sperm population than DMSO, for viability, fewer PI-positive (dead) cells than DMSO; extreme values may be limits of the assay
# human spermatozoa [9] = test: viability fold change, 1 - (PI-positive fraction / DMSO median); higher = more of the measured sperm population than DMSO, for viability, fewer PI-positive (dead) cells than DMSO; conditions: incubation time: 3h, non-capacitating
# [10] = incubation time: 10min incubation, 9.99 µM
# [11] = incubation time: 10min incubation, 29.9 µM
# [12] = incubation time: 3h incubation, 9.99 µM
# [13] = incubation time: 3h incubation, 29.9 µM
# [14] = incubation time: 6h incubation, 9.99 µM
# [15] = incubation time: 6h incubation, 29.9 µM
# 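For progressively motile sperm, percent change vs DMSO (non-capacitating) in this document: pooled live human sperm from at least 3 donors, tracked by automated microscopy in 0.5 s time-lapse movies, compounds at 10 and 30 µM, versus median of 16 DMSO wells per plate.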
# 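For total motile sperm, percent change vs DMSO (non-capacitating) in this document: sperm pooled from at least 3 donors, tracked in 0.5 s time-lapse movies by automated microscopy after 10 min, 3 h or 6 h with compound at 10 or 30 µM.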
Compound,progressively motile sperm (human spermatozoa [1]; 9.99 µM) [%],progressively motile sperm (human spermatozoa [1]; 29.9 µM) [%],HepG2 toxicity (HepG2; 10 µM) [%],HepG2 toxicity (HepG2; 30 µM) [%],Cell Painting percent induction (HeLa [2]; 9.99 µM) [%],Cell Painting percent induction (HeLa [2]; 29.9 µM) [%],hyperactivated motile sperm (human spermatozoa [3]; 9.99 µM) [%],hyperactivated motile sperm (human spermatozoa [3]; 29.9 µM) [%],HeLa toxicity: nuclei-count effect normalised (HeLa [4]; 9.99 µM) [%],HeLa toxicity: nuclei-count effect normalised (HeLa [4]; 29.9 µM) [%],change in acrosome-reacted (human spermatozoa [5]; 9.99 µM) [%],change in acrosome-reacted (human spermatozoa [5]; 29.9 µM) [%],acrosome-reacted (human spermatozoa [6]; 9.99 µM) [%],acrosome-reacted (human spermatozoa [6]; 29.9 µM) [%],total motile sperm (human spermatozoa [7]; [10]) [%],total motile sperm (human spermatozoa [7]; [11]) [%],total motile sperm (human spermatozoa [7]; [12]) [%],total motile sperm (human spermatozoa [7]; [13]) [%],total motile sperm (human spermatozoa [7]; [14]) [%],total motile sperm (human spermatozoa [7]; [15]) [%],progressively motile sperm (human spermatozoa [8]; [10]) [%],progressively motile sperm (human spermatozoa [8]; [11]) [%],progressively motile sperm (human spermatozoa [8]; [12]) [%],progressively motile sperm (human spermatozoa [8]; [13]) [%],progressively motile sperm (human spermatozoa [8]; [14]) [%],progressively motile sperm (human spermatozoa [8]; [15]) [%],viability fold change (human spermatozoa [9]; 9.99 µM),viability fold change (human spermatozoa [9]; 29.9 µM)
C=CC[C@@H]1/C=C(\C)C[C@H](C)C[C@H](OC)[C@H]2O[C@@](O)(C(=O)C(=O)N3CCCC[C@H]3C(=O)O[C@H](/C(C)=C/[C@@H]3CC[C@@H](O)[C@H](OC)C3)[C@H](C)[C@@H](O)CC1=O)[C@H](C)C[C@@H]2OC [Tacrolimus],0.476,-0.37,-3.53,10.6,0,0.072,-13.3,-55.8,-1.94,18.1,0.533,0.376,-13.9,-24,3.53,3.6,-6.77,-2.1,-8.35,-8.9,5.82,0.659,-17.7,-17.9,-13.1,-20.1,-1.97,-2.04
COc1cc(C)c2c(Oc3cccc(C(F)(F)F)c3)c(OC)cc(NC(C)CCCN)c2n1 (stereo not given) [Tafenoquine],-71.9,-99.9,103,103,28.9,18,-85.5,-85.1,97.2,96.3,46.7,75,86.1,161,-17.5,-74.6,-71.2,-90.7,-79.5,-92,-20.8,-94.3,-85.3,-100,-93.7,-100,-1.97,-2.48
COc1cn(-c2ccc(-n3cccn3)cc2F)nc(-c2ccnn2-c2ccccc2)c1=O [Tak-063],4.06,10.1,-4.05,8.05,1.19,3.31,321,303,6.28,2.94,0.708,0.393,114,117,-3.81,-3.32,-11,-14.9,-15.5,-20.7,26.4,27.7,64.8,48.7,74.2,44,-1.78,-1.87
CCOc1ccccc1OCCN[C@H](C)Cc1ccc(OC)c(S(N)(=O)=O)c1 [Tamsulosin],7.35,14.8,-2.54,9.76,0,0,26,16.1,-2.07,2.87,0.811,1.12,8.46,14.3,4.75,4.64,1.09,4.59,2.47,0.434,3.42,13.4,17.3,20.7,23.6,26.5,-0.468,-0.658
O=c1sn(-c2cccc3ccccc23)c(=O)n1Cc1ccccc1 [Tideglusib],9.17,6.85,-4.62,4.74,0.036,0,17.7,-11.8,-2.47,7.35,0.723,0.984,5.65,6.56,2.52,3.97,-5.07,0.868,-6.75,-2.88,4.02,2.42,-2.59,-0.339,-4,-0.265,-1.71,-1.3
